Data from patent US10233202B2, “Tenofovir monobenzyl ester phosphamide prodrug, preparation method and use thereof” (JIANGSU TASLY DIYI PHARMACEUTICAL CO., LTD., priority 2015, dated 2019).
Read-outs that look alike come from different tables or passages of the source.

Tests used:
[1] = in vitro; type: cell-based; conditions: human, HepG2.2.15 cells
Experimental: The concentration of HBV DNA in the HepG2.2.15 cell supernatant was detected through the real-time fluorescence quantitative PCR (qPCR) method to determine the anti-HBV activity of the compound in the HepG2.2.15 cells, and the effect of the testing compounds to the HepG2.2.15 cell activity was detected through Cell-titer Blue.
(§1) 8.1. Dilution of the compounds: the initial concentration of each compound in the in vitro anti-HBV activity test was 1 μM, with 3-fold serial dilution to 8 concentrations; the initial concentration of each compound in the cytotoxicity test was 100 μM, with 3-fold serial dilution to 8 concentrations; DMSO was used for the dilution of the compound mother liquor. The initial concentrations of the reference compound TDF for the anti-HBV activity test in vitro and the cytotoxicity test were all set at 0.2 μM, with 3-fold serial dilution to 8 concentrations.
8.3. Treatment of the cells in the cell viability test: the HepG2.2.15 cells were plated in the 96-well plate (4×10^4 cells/well), and cultured overnight at 37° C. in 5% CO2. On 2nd day, fresh culture solutions containing compounds of different concentrations were added to the culture wells. See Table 3 for the compound distribution. On 5th day, the used culture solutions in the culture wells were sucked and discarded, and fresh culture solutions containing compounds of different concentrations were added. On 8th day, Cell-titer Blue agent was added to each well, and the microplate reader was used to detect the fluorescence value of each well.
The cell viability percentage was calculated using the following formula: % cell viability=(fluorescence of sample−fluorescence of medium control)/(fluorescence of DMSO control−fluorescence of medium control)[…] 100%
(§2) 9.2 Test method: the test was carried out according to the procedure in example 1.

[2] = system: HBV; assay: Cell based anti-HBV activity test, HBV DNA in HepG2.2.15 cell supernatant by qPCR; conditions: read-out: EC50
Experimental: as §1
8.2. Anti-HBV activity test in vitro: the HepG2.2.15 cells were plated in the 96-well plate (4×10^4 cells/well), and cultured overnight at 37° C. in 5% CO2. On second day, fresh culture solutions containing compounds of different concentrations were added to the culture wells. See Table 2 for the compound distribution. On 5th day, the used culture solutions in the culture wells were sucked and discarded, and fresh culture solutions containing compounds of different concentrations were added. On 8th day, the supernatant in the culture wells was collected for the extraction of HBV DNA in the supernatant. qPCR test was used to detect the concentration of HBV DNA content in the HepG2.2.15 supernatant.
8.4. Data analysis and calculation of the inhibition percentage and relative cell viability: The inhibition percentage was calculated using the following formula: % Inh.=[(HBV quantity of DMSO control−HBV quantity of sample)/HBV quantity of DMSO control]×100%
9.1 Drugs: the dilution method and concentrations of compound 3, the reference compound (CN201380030061.6, and the compound shown in claim 36 (abbreviation: compound 7), and the isomer thereof) were the same as those in example 1.
as §2

[3] = Stability in the human liver S9; type: in vitro ADME; conditions: for CLlint(s9) / half-life at 1 μM / Remaining (T = 60 min): human liver S9, 1 μM
Experimental: (§3) The following stability test were carried out according to the prior art, and the data of the stability test shown in the table were the residue percentages after the test compounds were incubated for different period of time under the test condition.

[4] = Stability in the simulated intestinal fluid; type: in vitro ADME; conditions: 10 μM
Experimental: as §3

[5] = in vivo; design: species or system ICR mice; conditions: mouse, 50 mg/kg
Experimental: 12 ICR mice (male, body weight 30±5 g, purchased from the Vital River animal center) were randomly divided into 4 groups, 3 for each group, fasted for 12 h before drug administration, with freely drinking during the fasting. […] The dose of the Tenofovir prodrug was 50 mg/kg, and the administration quantity was 10 mL/kg. The sample collection protocols: after administration by gastric gavage, each 0.5 mL of blood was taken from the orbit at 15 min, 30 min, 1 h, and 3 h; the mice were sacrificed, and the liver tissues were taken, washed cleanly, and weighed; normal saline was added to the liver with a proportion of 1:1, homogenized, and stored in the refrigerator at −40° C. for test. Treatment method for the plasma samples: 100 μL of the mouse plasma was taken and placed in a 1.5 mL plastic EP tube, 100 μL solution of internal standard (200 ng/ml theophylline) solution was added, 600 μL acetonitrile was added, vortex shaking for 2 min, centrifuged for 3 min (12500 rpm), the supernatant was taken, purged with nitrogen to dryness, and dissolved again with 100 μL of mobile phase (water:methanol=95:5), and the injection volume was 10 μL. Treatment method for the tissue samples: 200 μL of the mouse tissue samples were taken and placed in a 1.5 mL plastic EP tube, 100 μL solution of internal standard (200 ng/ml theophylline) solution was added, 600 μL acetonitrile was added, vortex shaking for 2 min, centrifuged for 3 min (12500 rpm), the supernatant was taken, purged with nitrogen to dryness, and dissolved again with 100 μL of mobile phase (water:methanol=95:5), and the injection volume was 20μL.

[6] = Cell viability test in MT-4 cells (CellTiter Glo); type: cell-based; conditions: human
Experimental: 9.3. Treatment of the cells in the cell viability test: parallel tests were carried out using the same method as that in 9.2, except that the 96-well plate containing the compounds of different concentrations were replaced with the blank 96-well plate, and CellTiter Glo was used to determine the cell viability to calculate the CC50 value.
(§4) 9.4. Data analysis and calculation of the inhibition percentage: the activity percentage was calculated using the following formula: Activity (%) =(Raw datacpd−AverageVC)/(AverageCC−AverageVC)*100Cell Viability (%)=Raw datacpd/AverageCC*100

[7] = system: HIV-1 IIIB; assay: In vitro anti-HIV activity test in MT-4 cells infected with HIV-1 IIIB (CellTiter Glo); type: cell-based; conditions: Human immunodeficiency virus 1, MT4, 120 h; MT-4 cells infected with HIV-1 IIIB, 5 days; read-out: EC50
Experimental: 9.1. Dilution and concentrations of the compounds and the reference compound (CN01813161GS-7340, TDF) were the same as those in example 1.
9.2. In vitro anti-HIV activity test: after MT-4 cells were infected with 24 TCID50HIV-1 IIIB/1×10^5 cells (2.4 TCID50/well) at 37° C. for 1 hour, they were plated in the 96-well plate containing the compounds of different concentrations ([…]) and cultured at 37° C. in 5% CO2 for 5 days. CellTiter Glo was used to determine the activity to calculate the EC50 value.
as §4

[8] = Stability in the simulated gastric fluid; type: in vitro ADME
Experimental: as §3

[9] = biological target: hERG K-channel (Homo sapiens, UniProt Q12809); assay: hERG manual whole-cell patch clamp in CHO cells (cardiotoxicity study); conditions: IC50, hERG current, room temperature
Experimental: The CHO cells obtained from AVivaBiosciences that could stably express the hERG K-channel were used in the test, and the cells were incubated at 37° C. in 5% CO2 and under constant humidity.
The final concentration of DMSO in the extracellular fluid was not higher than 0.30%.
The whole-cell patch clamp technique was used on the Multiclamp patch-clamp amplifier to test the compound at room temperature, the output signal was digitalized using the DIgiDAta 1440 A/D-D/A plate, and the Pclamp10 software was used for the control of the recording. The minimum sealing resistance was set at 500 MOh/ms, and the minimum specific hERG current was set at 0.4 nA for quality control.
Clampfit (V10.2, Molecular Devices), Excel 2003 and GraphPad Prism 5.0 were used for the data analysis. The calculation formula of the current: I/Icontrol=Bottom+(Top−Bottom)/(1+10^((LogIC50−Log C)*Hillslope

[10] = Stability in the human blood; type: in vitro ADME; conditions: 2 μM
Experimental: as §3

[11] = Cell-titer Blue on 8th day, Table 3
[12] = Hepatitis B virus, HepG2.2.15, HepG2.2.15 cells, HBV DNA in supernatant on 8th day, Table 3
[13] = HepG2.2.15 cells, HBV DNA in supernatant on 8th day, Table 3
[14] = Hepatitis B virus, HepG2.2.15, HepG2.2.15 cells, comparative test, Table 4

Chain of hERG K-channel (Q12809 whole entry): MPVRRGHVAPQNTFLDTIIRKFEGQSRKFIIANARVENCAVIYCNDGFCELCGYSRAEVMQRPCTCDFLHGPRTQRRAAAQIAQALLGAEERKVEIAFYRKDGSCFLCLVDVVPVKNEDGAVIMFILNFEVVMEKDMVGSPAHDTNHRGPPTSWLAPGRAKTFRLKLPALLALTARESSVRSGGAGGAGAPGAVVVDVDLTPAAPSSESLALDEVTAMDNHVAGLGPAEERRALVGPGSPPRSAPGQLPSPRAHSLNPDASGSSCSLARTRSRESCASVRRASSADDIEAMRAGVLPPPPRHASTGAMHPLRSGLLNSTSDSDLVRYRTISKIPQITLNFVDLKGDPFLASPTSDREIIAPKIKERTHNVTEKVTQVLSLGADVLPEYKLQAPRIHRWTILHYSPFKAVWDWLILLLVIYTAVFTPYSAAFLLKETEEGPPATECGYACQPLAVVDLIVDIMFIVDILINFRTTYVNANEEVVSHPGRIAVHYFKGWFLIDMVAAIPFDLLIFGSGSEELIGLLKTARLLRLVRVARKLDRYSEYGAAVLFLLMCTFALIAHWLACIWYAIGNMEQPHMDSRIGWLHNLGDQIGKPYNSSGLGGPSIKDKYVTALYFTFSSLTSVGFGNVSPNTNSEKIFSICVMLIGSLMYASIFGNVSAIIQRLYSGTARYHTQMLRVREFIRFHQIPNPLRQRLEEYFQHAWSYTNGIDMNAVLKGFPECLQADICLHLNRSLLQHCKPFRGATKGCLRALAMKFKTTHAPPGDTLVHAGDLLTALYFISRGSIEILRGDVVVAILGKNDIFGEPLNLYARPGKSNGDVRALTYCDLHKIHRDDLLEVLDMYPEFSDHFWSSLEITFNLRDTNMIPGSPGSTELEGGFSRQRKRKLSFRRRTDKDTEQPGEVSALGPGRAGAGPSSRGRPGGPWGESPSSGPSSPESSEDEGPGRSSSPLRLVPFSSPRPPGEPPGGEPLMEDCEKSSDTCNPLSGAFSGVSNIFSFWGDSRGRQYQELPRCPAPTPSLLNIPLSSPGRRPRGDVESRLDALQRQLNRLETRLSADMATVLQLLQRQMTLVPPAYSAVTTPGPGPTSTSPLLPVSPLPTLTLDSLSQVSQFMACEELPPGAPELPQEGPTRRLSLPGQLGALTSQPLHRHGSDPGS

## CC(C)OC(=O)CN[P@@](=O)(CO[C@H](C)Cn1cnc2c(N)ncnc21)OCc1ccccc1 (single isomer, unassigned) [Compound 1a]
[1]; [11]
  CC50: > 100000 nM
[2]; [12]
  EC50: > 1000 nM

## CC(C)OC(=O)CN[P@](=O)(CO[C@H](C)Cn1cnc2c(N)ncnc21)OCc1ccccc1 (single isomer, unassigned) [Compound 1b]
[1]; [11]
  CC50: > 100000 nM
[2]; [13]
  EC50: 290 nM
[2]; [12]
  EC50: 200 to 1000 nM

## C[C@H](Cn1cnc2c(N)ncnc21)OC[P@](=O)(NCC(=O)OCc1ccccc1)OCc1ccccc1 (single isomer, unassigned) [Compound 5a]
[1]; [11]
  CC50: > 100000 nM
[2]; [13]
  EC50: 214 nM
[2]; [12]
  EC50: 200 to 1000 nM

## C[C@H](Cn1cnc2c(N)ncnc21)OC[P@@](=O)(NCC(=O)OCc1ccccc1)OCc1ccccc1 (single isomer, unassigned) [Compound 5b]
[1]; [11]
  CC50: > 100000 nM

## CCOc1ccc2ccc(=O)oc2c1 [7-Ethoxycumarin]
[3]
  CLlint(s9): 8.4 µL/min/mg
  half-life at 1 μM: 82.2 min
  Remaining (T = 60 min): 60%
[3]; scaled per kg
  CLlint(s9): 0.0297 mL/min/kg

## O=c1ccc2ccc(O)cc2o1 [7-Hydroxycoumarin]
[3]
  Remaining (T = 60 min): 4%
[3]; human, s9
  half-life: 6.6 min

## O=C(O)CCCc1ccc(N(CCCl)CCCl)cc1 [Chlorambucil]
[4]
  % 0 min (residue percentage): 100%
  % 60 min (residue percentage): 29.36%
  % 120 min (residue percentage): 3.11%
  % 360 min (residue percentage): 0.00%
  % 1440 min (residue percentage): 0.00%

## COC(=O)CN[P@@](=O)(CO[C@H](C)Cn1cnc2c(N)ncnc21)OCc1ccccc1 [Compound 2a]
[1]; [11]
  CC50: > 100000 nM

## COC(=O)CN[P@](=O)(CO[C@H](C)Cn1cnc2c(N)ncnc21)OCc1ccccc1 [Compound 2b]
[1]; [11]
  CC50: > 100000 nM
[2]; [12]
  EC50: > 1000 nM

## CC(C)OC(=O)[C@H](C)NP(=O)(CO[C@H](C)Cn1cnc2c(N)ncnc21)OCc1ccccc1 (some centres unmarked) [Compound 3]
[5]; male, ICR
  selectivity ratio at 3 h: 3.61
[5]; male, ICR, Cliver tissue
  concentration at 3 h: 375 nM
[5]; male, ICR, Cplasma
  concentration at 3 h: 104 nM

## Cc1ccccc1CO[P@](=O)(CO[C@H](C)Cn1cnc2c(N)ncnc21)N[C@@H](C)C(=O)OC(C)C [Compound 7a]
[1]; comparative test, Table 4
  CC50: > 100000 nM
[2]; [14]
  EC50: > 1000 nM

## Cc1ccccc1CO[P@@](=O)(CO[C@H](C)Cn1cnc2c(N)ncnc21)N[C@@H](C)C(=O)OC(C)C [Compound 7b]
[3]
  CLlint(s9): 147.4 µL/min/mg
  half-life at 1 μM: 4.7 min
  Remaining (T = 60 min): 5%
[3]; scaled per kg
  CLlint(s9): 0.519 mL/min/kg
[6]
  CC50 at 5 days: 14700 nM
[7]
  EC50: 83.7 nM
[8]; 10 μM
  % 0 min (residue percentage): 100%
  % 60 min (residue percentage): 82.76%
  % 120 min (residue percentage): 51.39%
  % 360 min (residue percentage): 13.16%
  % 1440 min (residue percentage): 0.00%
[1]; comparative test, Table 4
  CC50: > 100000 nM
[4]
  % 0 min (residue percentage): 100%
  % 60 min (residue percentage): 31.28%
  % 120 min (residue percentage): 8.33%
  % 360 min (residue percentage): 0.09%
  % 1440 min (residue percentage): 0.00%
[9]
  IC50: > 10000 nM
[2]; [14]
  EC50: 275 nM
[10]
  % 0 min (residue percentage): 100%
  % 10 min (residue percentage): 93.5%
  % 30 min (residue percentage): 91.6%
  % 60 min (residue percentage): 90.5%
  % 120 min (residue percentage): 90.1%

## CC1CC(OC(=O)C(O)c2ccccc2)CC(C)(C)N1C (centres unmarked) [Eucatropine]
[10]
  % 0 min (residue percentage): 100%
  % 10 min (residue percentage): 54.4%
  % 30 min (residue percentage): 37.0%
  % 60 min (residue percentage): 24.4%
  % 120 min (residue percentage): 10.2%

## COc1ccc2[nH]c([S+]([O-])Cc3ncc(C)c(OC)c3C)nc2c1 (centres unmarked) [Omeprazole]
[8]; 20 μM
  % 0 min (residue percentage): 100%
  % 60 min (residue percentage): 24.34%
  % 120 min (residue percentage): 9.41%
  % 360 min (residue percentage): 1.58%
  % 1440 min (residue percentage): 0.31%

## C[C@H](Cn1cnc2c(N)ncnc21)OCP(=O)(O)O [TFV, Tenofovir]
[5]
  Cliver tissue: 67.251 nmol/mL
  Cplasma: 0.075 nmol/mL
  Liver tissue selectivity (Cliver tissue/Cplasma): 896
